Data as given in PubChem BioAssay (NCI).
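Where inhibition never reached the appropriate level, the endpoint shown equals the highest concentration tested. Otherwise, values were interpolated linearly from a five-concentration, 48-hour dose response in 96-well plates. Here, GI50 denotes the concentration required for 50% inhibition of growth. TGI denotes the concentration required for complete inhibition of growth.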

What was measured:
Experiment in all cases: inhibition of tumour cell growth, NCI panel, 48 h
K-562 leukemia = tested on: K-562 leukemia
CAKI-1 renal = tested on: CAKI-1 renal
NCI-H226 lung = tested on: NCI-H226 lung
M14 melanoma = tested on: M14 melanoma
MALME-3M melanoma = tested on: MALME-3M melanoma
NCI-H522 lung = tested on: NCI-H522 lung
SK-MEL-2 melanoma = tested on: SK-MEL-2 melanoma
SF-539 CNS = tested on: SF-539 CNS
UACC-257 melanoma = tested on: UACC-257 melanoma
NCI/ADR-RES ovarian = tested on: NCI/ADR-RES ovarian

Row | Structure (SMILES) | TGI (K-562 leukemia) | TGI (CAKI-1 renal) | TGI (NCI-H226 lung) | TGI (M14 melanoma) | TGI (MALME-3M melanoma) | TGI (NCI-H522 lung) | TGI (SK-MEL-2 melanoma) | TGI (SF-539 CNS) | TGI (UACC-257 melanoma) | GI50 (K-562 leukemia) | GI50 (CAKI-1 renal) | GI50 (NCI-H226 lung) | GI50 (NCI/ADR-RES ovarian) | TGI (NCI/ADR-RES ovarian) | GI50 (M14 melanoma) | GI50 (MALME-3M melanoma) | GI50 (SF-539 CNS) | GI50 (UACC-257 melanoma) | GI50 (NCI-H522 lung) | GI50 (SK-MEL-2 melanoma)
1 | O=C(CC/C(CC(=O)c1ccc(Cl)cc1)=N/O)Nc1ccc(Cl)c(Cl)c1 | > 100 µM | > 100 µM | > 100 µM | > 100 µM | > 100 µM | > 100 µM | > 100 µM | > 100 µM | > 100 µM | – | – | – | – | – | – | – | – | – | – | –
2 | COC(=O)c1c(C)cc2c(c1O)C1(O)C(=O)c3cc4c(c(O)c3C(=O)C1(OC)C(O)C2)C(=O)C=C(NC1OC(C)C(OC)C(O)C1OC)C4=O (centres undefined) | 0.178 µM | 0.806 µM | 0.416 µM | 0.262 µM | 0.249 µM | 0.257 µM | 0.149 µM | 0.2 µM | 0.0357 µM | – | – | – | – | – | – | – | – | – | – | –
3 | Oc1ccc2c3c1OC1C(=NN=C4CCC5(O)C6Cc7ccc(O)c8c7C5(CCN6CC5CC5)C4O8)CCC4(O)C(C2)N(CC2CC2)CCC314 (centres undefined) | 48.2 µM | > 100 µM | > 100 µM | 33.4 µM | 34.5 µM | 57.4 µM | 18.9 µM | > 55.5 µM | 43.1 µM | – | – | – | – | – | – | – | – | – | – | –
4 | COCOCc1cc(OCc2ccccc2)c(OC)cc1Br | > 100 µM | > 100 µM | – | – | > 100 µM | – | > 100 µM | > 100 µM | > 100 µM | – | – | – | – | – | – | – | – | – | – | –
5 | N#CCCN(CCC#N)c1ccc(/C=N\c2nc(-c3ccccc3)cs2)cc1 | > 100 µM | > 100 µM | > 100 µM | > 100 µM | > 100 µM | > 100 µM | > 100 µM | > 100 µM | > 100 µM | – | – | – | – | – | – | – | – | – | – | –
6 | COC(=O)c1cc2c3ccccc3n3c(=O)c4cc5cc(OC)c(N(S(=O)(=O)c6ccc(C)cc6)S(=O)(=O)c6ccc(C)cc6)cc5nc4c(n1)c23 | > 100 µM | > 100 µM | > 100 µM | > 100 µM | > 100 µM | – | – | 30.6 µM | > 100 µM | 47.2 µM | > 100 µM | 23.9 µM | > 100 µM | > 100 µM | 32.7 µM | > 100 µM | 13 µM | > 100 µM | – | –
7 | CCOC(=O)N[C@H]1CCc2cc(O)c(OC)c(OC)c2-c2ccc(SC)c(=O)cc21 | > 100 µM | > 65.3 µM | 1.25 µM | 51.5 µM | > 100 µM | 0.046 µM | 0.173 µM | 0.044 µM | > 100 µM | – | – | – | – | – | – | – | – | – | – | –
8 | CCCCCCCCCCCCSC(=NC)NC | 6.35 µM | 4.8 µM | – | – | 3.97 µM | – | – | 3.14 µM | 5.14 µM | 1.95 µM | 1.92 µM | – | 2.06 µM | 4.53 µM | – | 2.04 µM | 1.67 µM | 2.15 µM | – | –
9 | O=C1C2C(C(=O)N1c1ccccc1)C1(c3ccccc3)OC2(c2ccccc2)c2ccccc21 (centres undefined) | > 100 µM | > 100 µM | – | > 100 µM | > 100 µM | > 100 µM | > 100 µM | > 100 µM | > 100 µM | – | – | – | – | – | – | – | – | – | – | –
10 | CCCC(=O)Nc1cc([N+](=O)[O-])c([N+](=O)[O-])cc1OC | > 100 µM | 29.5 µM | 51.2 µM | 25.6 µM | – | 27.6 µM | 41.6 µM | 37.8 µM | 35.4 µM | – | – | – | – | > 100 µM | – | – | – | – | – | –
11 | Cc1[nH]n(-c2ccc(S(=O)(=O)O)cc2)c(=O)c1N=Nc1ccccc1 | > 100 µM | > 100 µM | – | > 100 µM | > 100 µM | > 100 µM | > 100 µM | > 100 µM | > 100 µM | – | – | – | – | > 100 µM | – | – | – | – | – | –
12 | CN1C(=O)c2cc([N+](=O)[O-])ccc2[C@H]2C(=O)c3cc4c(cc3[C@H]21)OCO4 | > 100 µM | 0.228 µM | – | 0.037 µM | – | 9.42 µM | > 45.8 µM | 0.973 µM | 3.3 µM | 0.199 µM | < 0.01 µM | – | 0.0684 µM | 15.2 µM | < 0.01 µM | – | 0.041 µM | 0.139 µM | < 0.0179 µM | 1.91 µM
13 | O=C1Nc2ccccc2/C1=C/c1ccccc1 | > 100 µM | > 100 µM | 37.4 µM | 30.6 µM | – | 33.9 µM | 28.5 µM | 42.6 µM | 29 µM | – | – | – | – | 70.6 µM | – | – | – | – | – | –
14 | O=C1Cc2ccccc2N1c1c(Cl)cccc1Cl | > 100 µM | > 100 µM | > 100 µM | > 100 µM | > 100 µM | > 100 µM | > 100 µM | > 100 µM | > 100 µM | – | – | – | – | – | – | – | – | – | – | –
15 | CCC[CH2][Sn]1([CH2]CCC)[O]C(=O)c2cccc(OC)c2[O]1 | 1.16 µM | 0.775 µM | 3.04 µM | 1.56 µM | 0.633 µM | 0.179 µM | 0.574 µM | 1.42 µM | 0.537 µM | 0.0719 µM | 0.0732 µM | 1.63 µM | – | – | 0.422 µM | 0.14 µM | 0.387 µM | 0.199 µM | 0.0386 µM | 0.156 µM
16 | O=C(CC(O)c1ccncc1)c1ccccc1 (centres undefined) | > 100 µM | > 100 µM | > 100 µM | > 100 µM | – | 99.3 µM | 55.3 µM | 48.3 µM | 80.4 µM | 23.9 µM | 23.1 µM | 33.9 µM | 29.8 µM | > 100 µM | 28.6 µM | – | 19.5 µM | 23.8 µM | 29.4 µM | 21.2 µM
17 | COc1cc(C2CC(c3ccc(Nc4ccnc5cc(Cl)ccc45)cc3)=NN2C=O)cc(OC)c1OC (centres undefined) | – | 26.5 µM | > 100 µM | 13.9 µM | 8.32 µM | – | – | 6.38 µM | 8.28 µM | – | 5.47 µM | 34.5 µM | 7.88 µM | > 100 µM | 3.75 µM | 3.2 µM | 2.75 µM | 2.84 µM | – | –
18 | COc1ccc(/C(=N\O)c2cc(OC)c(OC)c(OC)c2)c(OC)c1N | > 100 µM | > 100 µM | > 100 µM | > 100 µM | > 100 µM | > 100 µM | > 100 µM | > 100 µM | – | 1.5 µM | 4.38 µM | 46.6 µM | – | – | 2.98 µM | 8.5 µM | 2.89 µM | – | 3.3 µM | 7.48 µM
19 | C=CCC12CC(=O)C=C1CCC1(C2)OCCO1 (centres undefined) | > 100 µM | > 100 µM | > 100 µM | > 100 µM | > 100 µM | > 100 µM | > 100 µM | > 100 µM | > 100 µM | – | – | – | – | – | – | – | – | – | – | –
20 | O=C(Nc1ccc([N+](=O)[O-])cc1C(=O)O)c1ccc([N+](=O)[O-])cc1 | 32.3 µM | – | 91.6 µM | > 100 µM | > 100 µM | – | 92.2 µM | > 100 µM | > 100 µM | – | – | – | – | – | – | – | – | – | – | –
21 | C#C[C@@]1(O)CCCC2=CC(=O)C[C@]21C | > 100 µM | – | > 100 µM | > 100 µM | > 100 µM | > 100 µM | > 100 µM | > 100 µM | > 100 µM | – | – | – | – | – | – | – | – | – | – | –
22 | c1ccc2c(-c3nc4ccccc4[nH]3)cccc2c1 | 18 µM | > 100 µM | – | 12 µM | 34.9 µM | 5.54 µM | 8.68 µM | 23.7 µM | 84.4 µM | 0.541 µM | 3.18 µM | – | 1.8 µM | > 100 µM | 1.99 µM | 3.81 µM | 3.77 µM | 3.87 µM | 2.19 µM | 2.15 µM
23 | Oc1ccc2ccccc2c1C(c1ccc(Cl)cc1)c1c(O)ccc2ccccc12 | 10.6 µM | 9.08 µM | – | 15.2 µM | 6.71 µM | 5.17 µM | 6.71 µM | 31.4 µM | 15.9 µM | – | – | – | – | 9.46 µM | – | – | – | – | – | –
24 | Cn1cnc([N+](=O)[O-])c1Sc1nc2cccnc2s1 | – | 21 µM | 36.5 µM | 26.8 µM | 22 µM | – | – | 42 µM | 27.9 µM | – | – | – | – | – | – | – | – | – | – | –
25 | CN(C)CC(C)(C)C(/C=C/c1ccccc1)=N\Nc1ccccc1 | 0.828 µM | – | – | 20.3 µM | 26.6 µM | 23.9 µM | 31 µM | 0.897 µM | 23.4 µM | – | – | – | – | – | – | – | – | – | – | –
26 | CC1C=CC(C)C2(O)C(=O)NC(O)C12 (centres undefined) | > 100 µM | > 100 µM | > 100 µM | > 100 µM | > 100 µM | > 100 µM | > 100 µM | > 100 µM | > 100 µM | – | – | – | – | – | – | – | – | – | – | –
27 | COc1ccc(Cn2cc3c(c2-c2ccc(O)cc2)CCc2cnoc2-3)cc1 | 16.6 µM | 18.8 µM | 31.3 µM | 16.5 µM | – | 0.596 µM | 20.2 µM | 3.33 µM | 30.6 µM | 0.13 µM | 0.331 µM | 4.6 µM | 0.19 µM | 0.946 µM | 0.325 µM | – | 0.273 µM | 13.7 µM | 0.0822 µM | 0.379 µM
28 | Oc1ccccc1Nc1nc2ccccc2c2occc12 | > 100 µM | 12.8 µM | – | 23.8 µM | – | 24.2 µM | 31 µM | 22.1 µM | 29.6 µM | > 100 µM | 1.78 µM | – | – | – | 11.6 µM | – | 10.4 µM | 16.1 µM | 8.36 µM | 14.1 µM
29 | COC(=O)c1oc2c(O)c(OC)c(Br)cc2c1C | > 100 µM | > 100 µM | 50.2 µM | 42.6 µM | – | > 100 µM | > 100 µM | – | 99.6 µM | 34.4 µM | 43.4 µM | 29 µM | – | – | 22.6 µM | – | – | 24.5 µM | 37.4 µM | 56.2 µM
